We go through 1 molecule from patent publication US4309559A, “Sulphonamides useful as pesticides” (FBC Limited, priority 1977, dated 1982).

Common to all, as to assay type: in vivo
One assay has as its system Oat (Avena sativa). The experiment in a line: Post-emergence foliar spray, herbicidal/growth regulant response, oat. Conditions: 168 h, foliar spray 11.2 kg/ha, 7 days, 0=no effect, 100=complete kill, read-out: herbicidal or growth regulant response index. An outline of the steps: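 Test compound, dissolved in 1:1 by volume aqueous acetone, is applied as a foliar spray equivalent to 11.2 kg/ha in 450 L/ha to seedlings two weeks after sowing. Responses are rated visually after one week on a 0–100 kill scale.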

The subject of the next assay is Mustard (Sinapis alba). As to the kind of experiment: Soil incorporation (attaclay/sand dust), growth regulatory or herbicidal effects, mustard. Conditions: 504 h, soil incorporation 26 ppm, 21 days, 0=no effect, 100=complete kill, read-out: growth regulatory or herbicidal effect score. An outline of the steps:
(§1)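 Compounds formulated as attaclay/sand dust, incorporated into John Innes I compost at 26 ppm w/v (≈11.2 kg/ha) or 130 ppm w/v (≈56 kg/ha); seeds sown in treated soil, held 21 days at 22° C, 65-85% RH, 14 h light at 13,000 lux. Visual scoring versus untreated control, 0 (no effect) to 100 (complete kill).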

For another assay, the system named is Oats (Avena sativa). As to the kind of experiment: Soil incorporation (attaclay/sand dust), growth regulatory or herbicidal effects, oats. Conditions: 504 h, soil incorporation 26 ppm, 21 days, 0=no effect, 100=complete kill, read-out: growth regulatory or herbicidal effect score. A digest of the protocol: as §1
The subject of assay [1] is Ryegrass (Lolium perenne). The experiment in a line: Soil incorporation (attaclay/sand dust), growth regulatory or herbicidal effects, ryegrass. Particulars: 504 h, soil incorporation 26 ppm, 21 days, 0=no effect, 100=complete kill, read-out: growth regulatory or herbicidal effect score. A digest of the protocol:
as §1

Assay [2] deals with Wheat (Triticum aestivum). The experiment in a line: Pre-emergence soil surface spray, wheat. Conditions: soil surface spray 2.8 kg/ha, 21 days, 0=no effect, 100=complete kill. A digest of the protocol: (§2)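 Compound was sprayed onto the soil surface after sowing, at 2.8 kg active ingredient per hectare in 450 liters per hectare, formulated in 1:1 aqueous acetone or as an aqueous suspension with wetting agent. Pans were held 21 days at 22° C., 65-85% humidity and 14 h light. Effects were scored visually 0-100 against an untreated control, where 100 is complete kill.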

The test system of the next assay is Wild Oat (Avena fatua). The experiment in a line: Pre-emergence soil surface spray, wild oat. Particulars: soil surface spray 2.8 kg/ha, 21 days, 0=no effect, 100=complete kill. An outline of the steps: as §2
For assay [3], the system named is Blackgrass (Alopecurus myosuroides). As to the kind of experiment: Pre-emergence soil surface spray, blackgrass. Conditions: soil surface spray 2.8 kg/ha, 21 days, 0=no effect, 100=complete kill. A digest of the protocol:
as §2

On to `CCCS(=O)(=O)N(c1c(C)cccc1C)C(C)C(=O)OCC` (stereo not shown) [Example 24, N-(1-[ethoxycarbonyl]ethyl)-2',6'-dimethyl-1-propanesulphonanilide], for which, in the assay with Oat (Avena sativa), the plant injury at 11200 g/ha amounted to 30%. In addition, the pest or weed control at 26 µg/mL (with Mustard (Sinapis alba); in assay [1]) was 100% in each case. The plant injury at 26 µg/mL in the assay with Oats (Avena sativa) was 60%. Also, the “growth regulatory or herbicidal effect score” value in assay [2] was 10; in the assay with Wild Oat (Avena fatua), 100; in assay [3] it was 100.
